Reference: patent publication US8029920B2, “1,3,5-tris(diarylamino)benzenes and use thereof” (Bando Chemical Industries, Ltd, priority 2006, dated 2011)

Experiments:
[1] = Differential scanning calorimetry (DSC), glass transition temperature; format: physicochemical
Description: Differential Scanning Calorimetry (DSC):
(§1) The compound (3) is excellent in heat resistance.
The compound is excellent in heat resistance.

[2] = Vacuum evaporation temperature test with HPLC of boat residual; format: physicochemical; details: for purity of residual on the vacuum evaporation boat after vacuum evaporation / purity of residual on the vacuum evaporation boat before vacuum evaporation: HPLC; for purity of residual on the vacuum evaporation boat after vacuum evaporation: after vacuum evaporation (thermal stability); for temperature needed to obtain an evaporation rate of 5 Å/second: vacuum evaporation
Description: (Vacuum Evaporation Temperature Test)
(§2) The residual on the vacuum evaporation boat before and after vacuum evaporation of the compound (3) was analyzed by high performance liquid chromatography, showing that the residual on the vacuum evaporation boat before and after vacuum evaporation was in fact found to have a purity of 100.00%.
(§3) In contrast, the compound (2) starts decomposition at a temperature of 412° C. as shown by the TG/DTA measurement. Since the temperature is close to the above-mentioned vacuum evaporation temperature (415° C.), it is expected that the compound (2) is accompanied by thermal decomposition at the vacuum evaporation temperature.

[3] = Solubility test in heated toluene; format: physicochemical
Description: 500 mL of heated toluene was needed to dissolve 1 g of the compound (2), but 50 mL of heated toluene was needed to dissolve 1 g of the compound (3).
500 mL of heated toluene was needed to dissolve 1 g of the compound (2), but 50 mL of heated toluene was needed to dissolve 1 g of the compound (4).

[4] = Thermogravimetric measurement/differential thermal analysis (TG/DTA); format: physicochemical
Description: Thermogravimetric Measurement/Differential Thermal Analysis (TG/DTA):
as §1, §2, §3
The compound (4) is excellent in heat resistance.

Cyclic voltammetry (CV) = format: physicochemical; details: for stability in repetition: repeated oxidation-reduction
[5] = prior art, JP-A-2004-155754; cited from earlier work

| glass transition temperature (Tg) [1] | purity of residual on the vacuum evaporation boat after vacuum evaporation [2] [%] | purity of residual on the vacuum evaporation boat before vacuum evaporation [2] [%] | temperature needed to obtain an evaporation rate of 5 Å/second [2] [°C] | heated toluene needed to dissolve 1 g of the compound [3] [mL] | temperature at which decomposition starts [4] [°C] | oxidation potential (Cyclic voltammetry (CV)) | reversibility of oxidation-reduction process (Cyclic voltammetry (CV)) | stability in repetition (Cyclic voltammetry (CV)) | decomposition temperature [4] [°C] | SMILES | glass transition temperature [5] [°C] |
| --- | --- | --- | --- | --- | --- | --- | --- | --- | --- | --- | --- |
| 103 °C | – | – | – | – | – | – | – | – | – | Cc1ccc(-c2ccc(N(c3ccc(C)cc3)c3cc(N(c4ccc(C)cc4)c4ccc(-c5ccc(C)cc5)cc4)cc(N(c4ccc(C)cc4)c4ccc(-c5ccc(C)cc5)cc4)c3)cc2)cc1 [compound (1), 1,3,5-tris(N-(4′-methyl-4-biphenylyl)-N-(4-methylphenyl)amino)benzene, reference compound] | – |
| no glass transition temperature | 95.87 | 99.03 | 415 | 500 | 412 | – | – | – | – | Cc1ccc(-c2ccc(N(c3ccc(-c4ccc(C)cc4)cc3)c3cc(N(c4ccc(-c5ccc(C)cc5)cc4)c4ccc(-c5ccc(C)cc5)cc4)cc(N(c4ccc(-c5ccc(C)cc5)cc4)c4ccc(-c5ccc(C)cc5)cc4)c3)cc2)cc1 [compound (2), 1,3,5-tris(N,N-bis(4′-methyl-4-biphenylyl)amino)benzene, reference compound] | – |
| 179 °C | 100.00 | 100.00 | 350 | 50 | 430 | 0.52 V (vs. Ag/Ag^+) | excellent | good | 478 | Cc1ccc(-c2ccc(N(c3ccc(-c4ccc(C)cc4)cc3)c3cc(N(c4ccc(C)cc4)c4ccc(C)cc4)cc(N(c4ccc(-c5ccc(C)cc5)cc4)c4ccc(-c5ccc(C)cc5)cc4)c3)cc2)cc1 [compound (3), N,N,N′,N′-tetrakis(4′-methyl-4-biphenylyl)-N″,N″-bis(4-methylphenyl)benzene-1,3,5-triamine] | – |
| 133 °C | 99.64 | 99.30 | 340 | 50 | 498 | 0.54 V (vs. Ag/Ag^+) | excellent | good | 498 | Cc1ccc(N(c2ccc(C)cc2)c2cc(N(c3ccc(-c4ccccc4)cc3)c3ccc(-c4ccccc4)cc3)cc(N(c3ccc(-c4ccccc4)cc3)c3ccc(-c4ccccc4)cc3)c2)cc1 [compound (4), N,N,N′,N′-tetrakis(4-biphenylyl)-N″,N″-bis(4-methylphenyl)benzene-1,3,5-triamine] | – |
| – | – | – | – | – | – | – | – | – | – | Cc1ccc(N(c2ccc(-c3ccccc3)cc2)c2cc(N(c3ccc(C)cc3)c3ccc(-c4ccccc4)cc3)cc(N(c3ccc(C)cc3)c3ccc(-c4ccccc4)cc3)c2)cc1 [p-MTPBAB, 1,3,5-tris(N-(p-methylphenyl)-N-(4-biphenylyl)amino)benzene] | 98 |
| – | – | – | – | – | – | – | – | – | – | Cc1ccc(N(c2cc(N(c3ccc(C)cc3)c3cccc4ccccc34)cc(N(c3ccc(C)cc3)c3cccc4ccccc34)c2)c2cccc3ccccc23)cc1 [p-MTPNAB, 1,3,5-tris(N-(p-methylphenyl)-N-(1-naphthyl))-amino benzene] | 87 |
